The nature of experiment [1]: Light and dark box test (anti-anxiety effect). It counts as in vivo, mouse (Std-ddY, male). As to conditions: Mus musculus, 0.5 h; oral, 30 min before test; mice; p<0.05 vs vehicle; read-out: Anti-anxiety effect MED (minimum effective dose). The text has this:
Experiment 2: Light and dark box test (anti-anxiety effect)
Anti-anxiety effect of test compounds was examined in a box with light and dark compartments according to the method of Crawley, J. and Goodwin, F. K. [cf. Pharmacol. Biochem. Behav. 13, 167-170 (1980)] with slight modification.
Light and dark box test is a useful, simple and handy method for behaviorally and pharmacologically examining anti-anxiety effect of the drugs, by utilizing the habit of rodents such as mice and rats, etc. which prefer to stay in a dark place, and regarding as positive drug effect the increase of the relative stay of the animals in the light compartment which is an uncomfortable place for the animals.
Light and dark box test was carried out using the test box device (35×15×17 cm) which comprises: a light compartment (20×15×17 cm) consisting of transparent acrylic plates and highly illuminated by an incandescent lamp (1,700 lux); a dark compartment (15×15×17 cm) being made of black acrylic plates connected to the light compartment; and at the boundary of compartments, an opening (4.4×5 cm) in which mice can go through freely between two compartments.
Male mice of Std-ddY strain weighing 25-30 g were used in a group of 10. Each trial was started by placing a mouse in the center of the light compartment 30 minutes after oral administration of a test compound, and the time spent by the mouse in the light compartment during a 5 minute observation period was measured, and the rate of the stay of mice in the light compartment to the whole time spent in the experiment was calculated. The increasing rate of the relative stay of the test compound to that of the vehicle control group was yielded, based on the rate of the stay of mice in the light compartment.
The anti-anxiety effect of the test compound was represented by the minimum effectivetive dose (MED) at which the increasing rate of the relative stay was regarded statistically as significant (Williams-Wilcoxon's test, p<0.05).

Experiment [2] is described as follows: Isoniazid-induced clonic convulsion test (anti-convulsant effect). It counts as in vivo, mouse (Std-ddY, male). Conditions: Mus musculus, 0.5 h; oral, 30 min before isoniazid 200 mg/kg s.c.; mice; read-out: Anti-isoniazid effect ED25 (dose which prolonged the onset time of clonic convulsion by 25%). The text has this:
Experiment 3: Isoniazid-induced clonic convulsion test (anti-convulsant effect)
Isoniazid inhibits glutamate decarboxylase which catalyzes GABA synthesis, deases brain GABA levels, and induces clonic convulsion. According to the method of Auta, J. et al. [cf. J. Pharmacol. Exp. Ther. 265, 649-656 (1993)] with slight modification, we examined antagonistic effect of the test compounds on isoniazid-induced clonic convulsion. […] Those are BZ anxiolytics represented by diazepam, neurosteroids such as allopregnanolone, allotetrahydrodeoxycortico-sterone(THDOC) and BZω3 receptor agonists which enhance the synthesis of neurosteroids.
Male mice of Std-ddY strain weighing 22-24 g were used in a group of 6. Thirty minutes after oral administration of the test compounds, mice were injected with isoniazid (200 mg/kg, s.c.), and immediately thereafter, placed individually in acrylic observation cages. The onset time of clonic convulsion was measured (cut-off time: 90 minutes). The latency in the control group was about 40 minutes.
Anti-isoniazid effect of the test compounds was expressed as the dose which prolonged the onset time by 25% compared to that in the vehicle group (ED25). The ED25 value was calculated according to the Litchfield-Wilcoxon's method.

Experiment [3] addresses peripheral (ω3) benzodiazepine (BZ) receptor (Rattus norvegicus, UniProt P16257). In words: BZω3 (peripheral-type) benzodiazepine receptor binding assay.

SMILES strings stand for the structures.

Turning to `CCCN(CCC)C(=O)CNc1nc(-c2ccccc2)nc(C)c1C` [Example 1, 2-(5,6-dimethyl-2-phenyl-4-pyrimidinylamino)-N,N-dipropylacetamide], the minimal effective dose in experiment [1] was 0.3 mg/kg. In addition, the ED25 in experiment [2] was 82.2 mg/kg. In experiment [3], the 50% inhibitory concentration (IC50) (in general, the midpoint of a concentration-inhibition curve) was determined as 3.1 nM.
The like results for `CCCN(CCC)C(=O)CNc1nc(-c2ccc(Cl)cc2)nc(C)c1C` [Example 2, 2-[2-(4-Chlorophenyl)-5,6-dimethyl-4-pyrimidinylamino]-N,N-dipropylacetamide] were, in that order, 0.01 mg/kg, 65.6 mg/kg and 0.97 nM.
Take `CCCN(CCC)C(=O)CNc1nc(-c2ccc(F)cc2)nc(C)c1C` [Example 4]: in experiment [2], the ED25 stood at 51.2 mg/kg. For the same molecule, the IC50 in experiment [3] amounted to 4.36 nM.
Taken in the same sequence, the figures for `CCCN(CCC)C(=O)CNc1nc(-c2ccc(OC)cc2)nc(C)c1C` [Example 5] were 15.1 mg/kg and 1.28 nM.
Take `CCN(CC)C(=O)CNc1nc(-c2ccccc2)nc(C)c1C` [Example 9]: the minimal effective dose in experiment [1] came to 0.3 mg/kg. In addition, in experiment [2], the ED25 stood at 25.5 mg/kg.
For `CCN(CC)C(=O)CNc1nc(-c2ccc(Cl)cc2)nc(C)c1C` [Example 10, 2-[2-(4-Chlorophenyl)-5,6-dimethyl-4-pyrimidinylamino]-N,N-diethylacetamide], in experiment [1], the minimal effective dose came to 1 mg/kg. Also, in experiment [2], the ED25 amounted to 36.9 mg/kg. Further, in experiment [3], the IC50 came to 0.7 nM.
`CCN(CC)C(=O)CNc1nc(-c2ccc(F)cc2)nc(C)c1C` [Example 11]: the ED25 in experiment [2] came to 47.5 mg/kg.
In the case of `CCN(CC)C(=O)CNc1nc(-c2ccc(OC)cc2)nc(C)c1C` [Example 12], in experiment [2], the ED25 is 31.8 mg/kg.
Regarding `CCCCN(CCCC)C(=O)CNc1nc(-c2ccc(F)cc2)nc(C)c1C` [Example 16], in experiment [1], the minimal effective dose was determined as 0.1 mg/kg. The IC50 in experiment [3] was 4 nM.
For `CCCN(CC)C(=O)CNc1nc(-c2ccccc2)nc(C)c1C` [Example 17], the ED25 in experiment [2] amounted to 45.7 mg/kg. In experiment [3], the IC50 was found to be 1.97 nM.
Take `Cc1nc(-c2ccccc2)nc(NCC(=O)N(C)CC(C)C)c1C` [Example 21]: the minimal effective dose in experiment [1] was determined as 0.1 mg/kg. The ED25 in experiment [2] came to 72.1 mg/kg.
Regarding `Cc1nc(-c2ccccc2)nc(NCC(=O)N(C)c2ccccc2)c1C` [Example 22], the minimal effective dose in experiment [1] turned out to be 0.3 mg/kg. Further, the ED25 in experiment [2] came out at 50.3 mg/kg. Also, the IC50 in experiment [3] was found to be 3.26 nM.
On to `Cc1nc(-c2ccc(Cl)cc2)nc(NCC(=O)N(C)c2ccccc2)c1C` [Example 23, 2-[2-(4-Chlorophenyl)-5,6-dimethyl-4-pyrimidinylamino]-N-methyl-N-phenylacetamide], for which the minimal effective dose in experiment [1] was found to be 0.01 mg/kg. In experiment [2], the ED25 was determined as 40.8 mg/kg. For the same molecule, in experiment [3], the IC50 worked out at 1.76 nM.
As for `Cc1nc(-c2ccc(F)cc2)nc(NCC(=O)N(C)c2ccccc2)c1C` [Example 25], the ED25 in experiment [2] came to 62.1 mg/kg. For the same molecule, the concentration for half-maximal inhibition (IC50) in experiment [3] came out at 1.93 nM.
For the molecule `Cc1nc(-c2ccccc2)nc(NCC(=O)N(C)c2ccc(Cl)cc2)c1C` [Example 29, N-(4-Chlorophenyl)-N-methyl-2-(5,6-dimethyl-2-phenyl-4-pyrimidinylamino) a cetamide], the minimal effective dose in experiment [1] is 0.03 mg/kg. In addition, in experiment [2], the ED25 worked out at 67.5 mg/kg. This molecule yielded an IC50 in experiment [3] of 0.85 nM.
On to `Cc1nc(-c2ccccc2)nc(NCC(=O)N(C)c2cccc(Cl)c2)c1C` [Example 31], for which the minimal effective dose in experiment [1] is 0.3 mg/kg.
For `CCN(C(=O)CNc1nc(-c2ccccc2)nc(C)c1C)c1ccccc1` [Example 44], the ED25 in experiment [2] worked out at 22.4 mg/kg. The IC50 in experiment [3] was determined as 4.98 nM.
The like results for `CCN(C(=O)CNc1nc(-c2ccc(F)cc2)nc(C)c1C)c1ccccc1` [Example 47] were, in that order, 7.62 mg/kg and 0.16 nM.
As for `CCN(C(=O)CNc1nc(-c2ccc(OC)cc2)nc(C)c1C)c1ccccc1` [Example 48], the ED25 in experiment [2] came to 7.67 mg/kg.
In the case of `CCN(C(=O)CNc1nc(-c2ccc([N+](=O)[O-])cc2)nc(C)c1C)c1ccccc1` [Example 50], in experiment [2], the ED25 was 27.3 mg/kg.
In the case of `CCCN(C(=O)CNc1nc(-c2ccc(Cl)cc2)nc(C)c1C)c1ccccc1` [Example 53], in experiment [2], the ED25 was 11.3 mg/kg.
Take `C=CCN(C(=O)CNc1nc(-c2ccccc2)nc(C)c1C)c1ccccc1` [Example 58]: the ED25 in experiment [2] is 11.8 mg/kg. Further, the IC50 in experiment [3] came out at 1.62 nM.
In the case of `C=CCN(C(=O)CNc1nc(-c2ccc(Cl)cc2)nc(C)c1C)c1ccccc1` [Example 59], the ED25 in experiment [2] was found to be 14.8 mg/kg.
Still for that read-out and setting: the value for `C=CCN(C(=O)CNc1nc(-c2ccc(OC)cc2)nc(C)c1C)c1ccccc1` [Example 60] was 2.14 mg/kg.
As for `Cc1nc(-c2ccccc2)nc(NCC(=O)N(CC2CC2)c2ccccc2)c1C` [Example 61], the ED25 in experiment [2] was 17.7 mg/kg. In experiment [3], this molecule came in with an IC50 of 9.8 nM.
The like results for `Cc1nc(-c2ccccc2)nc(NCC(=O)N2CC(C)CC(C)C2)c1C` (stereo not drawn) [Example 65, 3,5-Dimethyl-1-(5,6-dimethyl-2-phenyl-4-pyrimidinylamino)acetylpiperidine] were, in that order, 31.1 mg/kg and 1.66 nM.
Regarding `Cc1nc(-c2ccccc2)nc(NCC(=O)N2CC(C)OC(C)C2)c1C` (stereo not drawn) [Example 66a, 2,6-Dimethyl-4-(5,6-dimethyl-2-phenyl-4-pyrimidinylamino)acetylmorpholine], the ED25 in experiment [2] is 51.2 mg/kg.
In the case of `Cc1nc(-c2ccccc2)nc(NCC(=O)N2C[C@@H](C)O[C@@H](C)C2)c1C` [Example 66b, cis-2,6-Dimethyl-4-(5,6-dimethyl-2-phenyl-4-pyrimidinylamino)acetylmorpholine], the ED25 in experiment [2] worked out at 72.4 mg/kg.
Regarding `Cc1nc(-c2ccccc2)nc(N2CCCC2C(=O)N(C)c2ccc(Cl)cc2)c1C` (stereo not drawn) [Example 79, N-(4-chlorophenyl)-N-methyl-1-(5,6-dimethyl-2-phenyl-4-pyrimidinyl)-2-pyrrolidinecarboxamide], the ED25 in experiment [2] came to 43.8 mg/kg. The molecule also registered an IC50 in experiment [3] of 0.87 nM.
With `CCCN(CCC)C(=O)CNc1nc(-c2ccccc2)nc(C)c1CC` [Example 83, 2-(5-ethyl-6-methyl-2-phenyl-4-pyrimidinylamino)-N,N-dipropylacetamide], the ED25 in experiment [2] turned out to be 70.2 mg/kg. For the same molecule, in experiment [3], the IC50 turned out to be 5.02 nM.
Take `CCCN(CCC)C(=O)COc1nc(-c2ccc(OC)cc2)nc(C)c1C` [Example 139]: the minimal effective dose in experiment [1] was determined as 0.1 mg/kg. The molecule further registered an IC50 in experiment [3] of 0.38 nM.
Consider `COc1ccc(-c2nc(C)c(C)c(OCC(=O)N(C)c3ccc(Cl)cc3)n2)cc1` [Example 150], for which the minimal effective dose in experiment [1] came to 0.3 mg/kg.
With `Cc1nc(-c2ccccc2)nc(OCC(=O)N2CC(C)OC(C)C2)c1C` (stereo not drawn) [Example 171, 2,6-Dimethyl-4-(5,6-dimethyl-2-phenyl-4-pyrimidinyloxy)acetylmorpholine], the ED25 in experiment [2] worked out at 76.4 mg/kg. Besides, the IC50 in experiment [3] stood at 1.56 nM.
Turning to `CN(C(=O)COc1nc(-c2ccc(Cl)cc2)nc2c1CCCC2)c1ccccc1` [Example 181], in experiment [3], the IC50 is 1.61 nM. This counts as single-digit nanomolar.
The same measure, in the same setting: the value for `CCCN(C(=O)COc1nc(-c2ccccc2)nc2c1CCCC2)c1ccccc1` [Example 182] was 4.57 nM.
`O=C(COc1nc(-c2ccccc2)nc2c1CCCC2)Nc1ccc(F)cc1` [Example 183]: the half-inhibitory concentration (IC50) in experiment [3] worked out at 8.75 nM.
On the same count and under the same terms, under `CN(C(=O)COc1nc(-c2ccccc2)nc2c1CCCC2)c1ccc(F)cc1` [Example 184] stands 0.82 nM; under `CN(C(=O)COc1nc(-c2ccccc2)nc2c1CCCC2)c1cccc(Cl)c1` [Example 187], 9.71 nM.
The same measure, in the same setting: the value for `CN(Cc1ccccc1)C(=O)COc1nc(-c2ccccc2)nc2c1CCCC2` [Example 188] was 5.24 nM; that for `Cc1nc(-c2ccccc2)nc(OCC(=O)N(CC2CC2)c2ccccc2)c1C` [Example 190, N-cyclopropylmethyl-2-(5,6-dimethyl-2-phenyl-4-pyrimidinyloxy)-N-phenylacetamide] was 4 nM.
Consider `CC1CN(C(=O)COc2nc(-c3ccc(Cl)cc3)nc3c2CCCC3)CC(C)O1` (stereo not drawn) [Example 195, 4-[2-(4-Chlorophenyl)-5,6,7,8-tetrahydro-4-quinazolinyloxy] acetyl-2,6-dimethylmorpholine], for which the IC50 in experiment [3] is 2 nM.
